For one experiment, the target named is T1, GSPT1 (Homo sapiens, UniProt P15170+Q96SW2).
T1 construct: CAL-51 cells were purchased from DSMZ (cat. Number ACC302); host or cells: CAL-51
Kind of experiment: Immunofluorescence assay for activity to degrade GSPT1 in CAL-51 cells. Conditions: 6 h treatment, read-out: IF Class (GSPT1 degradation, DC50). Format: cell-based. The procedure, abridged:
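CAL-51 cells treated 6 h with compound (30 μM to 0.1 nM), fixed, immunostained for GSPT1 with DAPI and phalloidin counterstains, imaged by high-content microscopy. Mean per-cell GSPT1 intensity normalized to controls; DC50 by non-linear regression.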

Another experiment deals with CRBN-DDB1 (Homo sapiens, UniProt Q96SW2). Briefly: Compound binding to CRBN by HTRF assay. To be noted: CRBN-DDB1 2.5 nM, Cy5-Thalidomide 100 nM, 30 min at ambient temperature; read-out: HTRF Class (Cereblon binding, HTRF IC50). The procedure, abridged: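 Cy5-thalidomide (100 nM) displacement from His-tagged CRBN-DDB1 (2.5 nM) read by terbium-cryptate HTRF (665/620 nm), in 20 mM HEPES, 20 mM NaCl, 0.2 mM TCEP, 0.2 mM EDTA, 0.005% Tween20. Compounds tested as 10-point 1:3 series, 30 min at ambient temperature. Signal normalised to DMSO and lenalidomide controls; IC50 fitted, Ki by Cheng-Prusoff.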

Drawing on patent US20240308976A1, “COMPOUNDS THAT MEDIATE PROTEIN DEGRADATION AND USES THEREOF” (Monte Rosa Therapeutics, Inc., priority 2021, published 2024), this text covers DC50 and IC50 for 27 compounds.

Structures are written as SMILES. Bounds are passed on as bounds.

Sequence of CRBN-DDB1 (Q96SW2 whole entry): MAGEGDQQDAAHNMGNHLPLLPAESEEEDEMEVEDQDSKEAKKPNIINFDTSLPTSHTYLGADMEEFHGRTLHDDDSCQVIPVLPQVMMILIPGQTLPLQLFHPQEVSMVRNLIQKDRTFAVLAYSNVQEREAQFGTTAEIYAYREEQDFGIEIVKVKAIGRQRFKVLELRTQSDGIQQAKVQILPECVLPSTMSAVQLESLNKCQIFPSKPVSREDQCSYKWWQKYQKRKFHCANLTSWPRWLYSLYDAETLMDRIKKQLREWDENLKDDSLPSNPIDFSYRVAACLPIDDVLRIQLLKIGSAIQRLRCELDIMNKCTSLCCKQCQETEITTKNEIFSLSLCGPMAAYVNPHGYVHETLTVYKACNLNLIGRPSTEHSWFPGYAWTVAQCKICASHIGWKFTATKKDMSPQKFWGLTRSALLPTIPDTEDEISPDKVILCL
Sequence of CRBN-DDB1 (Q16531 whole entry partner): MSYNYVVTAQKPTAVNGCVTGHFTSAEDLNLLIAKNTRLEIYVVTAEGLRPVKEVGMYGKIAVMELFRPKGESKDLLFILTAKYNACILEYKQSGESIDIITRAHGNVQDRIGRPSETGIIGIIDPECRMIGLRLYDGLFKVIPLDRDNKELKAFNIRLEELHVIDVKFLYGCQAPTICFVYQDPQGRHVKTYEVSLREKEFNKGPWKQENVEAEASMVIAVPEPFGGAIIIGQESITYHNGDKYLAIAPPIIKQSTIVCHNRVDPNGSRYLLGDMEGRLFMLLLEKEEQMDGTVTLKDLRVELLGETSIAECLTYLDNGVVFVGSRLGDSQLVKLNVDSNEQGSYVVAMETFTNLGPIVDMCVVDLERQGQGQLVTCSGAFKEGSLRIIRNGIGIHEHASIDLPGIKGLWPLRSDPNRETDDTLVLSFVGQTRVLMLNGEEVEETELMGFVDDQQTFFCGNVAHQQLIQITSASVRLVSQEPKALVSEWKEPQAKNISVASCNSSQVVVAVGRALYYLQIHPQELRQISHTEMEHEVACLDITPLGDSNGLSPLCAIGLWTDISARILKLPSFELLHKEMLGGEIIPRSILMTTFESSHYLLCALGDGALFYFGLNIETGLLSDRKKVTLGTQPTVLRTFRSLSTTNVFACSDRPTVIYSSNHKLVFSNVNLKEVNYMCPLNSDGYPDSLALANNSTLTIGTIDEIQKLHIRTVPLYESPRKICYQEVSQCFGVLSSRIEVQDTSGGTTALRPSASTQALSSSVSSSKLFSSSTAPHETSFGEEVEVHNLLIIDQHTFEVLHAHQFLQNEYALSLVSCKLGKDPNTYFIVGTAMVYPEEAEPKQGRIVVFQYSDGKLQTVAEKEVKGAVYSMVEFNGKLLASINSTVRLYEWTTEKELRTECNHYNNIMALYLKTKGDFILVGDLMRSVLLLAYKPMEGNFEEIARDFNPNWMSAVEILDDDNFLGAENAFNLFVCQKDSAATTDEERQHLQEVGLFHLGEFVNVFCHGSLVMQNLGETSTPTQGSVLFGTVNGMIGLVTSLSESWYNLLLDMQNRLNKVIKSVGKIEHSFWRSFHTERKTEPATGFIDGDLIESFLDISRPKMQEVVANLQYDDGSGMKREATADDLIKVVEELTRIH
T1 sequence (P15170 whole entry): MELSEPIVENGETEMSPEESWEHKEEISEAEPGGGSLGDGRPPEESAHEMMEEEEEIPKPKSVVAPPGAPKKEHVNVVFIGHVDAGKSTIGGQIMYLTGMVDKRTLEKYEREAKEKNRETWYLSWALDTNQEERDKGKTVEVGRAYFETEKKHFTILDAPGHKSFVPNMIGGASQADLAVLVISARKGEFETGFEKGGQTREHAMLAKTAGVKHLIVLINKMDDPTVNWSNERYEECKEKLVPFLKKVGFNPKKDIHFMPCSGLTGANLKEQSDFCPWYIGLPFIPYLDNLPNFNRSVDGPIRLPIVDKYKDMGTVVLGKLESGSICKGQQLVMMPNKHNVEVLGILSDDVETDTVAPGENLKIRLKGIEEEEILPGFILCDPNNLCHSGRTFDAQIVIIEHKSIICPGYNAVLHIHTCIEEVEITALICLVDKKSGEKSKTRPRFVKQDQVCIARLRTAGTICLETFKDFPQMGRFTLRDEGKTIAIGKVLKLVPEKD
T1 sequence (Q96SW2 whole entry): as the sequence (Q96SW2 whole entry) above
T1 sequence (Q16531 2-1140 partner limits assumed): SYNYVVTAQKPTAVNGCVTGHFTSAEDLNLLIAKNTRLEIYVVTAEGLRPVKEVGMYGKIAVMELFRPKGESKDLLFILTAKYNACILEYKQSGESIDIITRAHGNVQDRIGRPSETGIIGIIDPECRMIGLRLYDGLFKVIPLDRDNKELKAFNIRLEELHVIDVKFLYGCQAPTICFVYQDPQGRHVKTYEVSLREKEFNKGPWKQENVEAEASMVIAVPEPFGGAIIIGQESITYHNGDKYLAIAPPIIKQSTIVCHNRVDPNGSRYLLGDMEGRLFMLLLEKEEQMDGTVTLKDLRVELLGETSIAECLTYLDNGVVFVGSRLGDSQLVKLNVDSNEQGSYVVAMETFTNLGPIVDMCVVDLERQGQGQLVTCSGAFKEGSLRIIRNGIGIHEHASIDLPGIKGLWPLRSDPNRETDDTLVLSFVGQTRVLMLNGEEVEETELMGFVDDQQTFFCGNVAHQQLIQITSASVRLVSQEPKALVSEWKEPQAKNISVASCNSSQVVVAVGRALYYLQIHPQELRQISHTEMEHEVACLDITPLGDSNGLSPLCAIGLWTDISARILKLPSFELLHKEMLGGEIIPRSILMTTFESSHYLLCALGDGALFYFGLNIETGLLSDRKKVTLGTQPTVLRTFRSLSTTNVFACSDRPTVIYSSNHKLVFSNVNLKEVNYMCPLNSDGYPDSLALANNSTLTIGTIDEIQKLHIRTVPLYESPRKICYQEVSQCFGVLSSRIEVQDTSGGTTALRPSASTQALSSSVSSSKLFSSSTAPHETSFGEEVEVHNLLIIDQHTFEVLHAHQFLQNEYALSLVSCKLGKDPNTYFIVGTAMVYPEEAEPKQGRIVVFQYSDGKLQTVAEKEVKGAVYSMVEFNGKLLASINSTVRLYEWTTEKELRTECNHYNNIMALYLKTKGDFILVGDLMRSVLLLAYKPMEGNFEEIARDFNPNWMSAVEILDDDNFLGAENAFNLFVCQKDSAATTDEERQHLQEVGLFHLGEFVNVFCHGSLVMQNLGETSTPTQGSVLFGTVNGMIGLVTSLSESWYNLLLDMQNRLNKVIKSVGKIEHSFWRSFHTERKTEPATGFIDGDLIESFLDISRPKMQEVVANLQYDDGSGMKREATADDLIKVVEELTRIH

The term DC50 denotes the concentration at which degradation of the target reaches its halfway point. In general, IC50 refers to the concentration at which inhibition is half-maximal. Consider `COc1c(N2CC(OC(=O)Nc3ccc(C)c(Cl)c3)C2)ccc(C2CCC(=O)NC2=O)c1Cl` (stereo not drawn) [Compound 59, 1-(3-chloro-4-(2,6-dioxopiperidin-3-yl)-2-methoxyphenyl)azetidin-3-yl (3-chloro-4-methylphenyl)carbamate], for which the DC50 at GSPT1 is more than 300 nM. The IC50 on CRBN-DDB1 was more than 1000 nM.

For the compound `CC1(c2ccc(NC(=O)NC3CN(c4cc(F)c(C5CCC(=O)NC5=O)c(F)c4)C3)cc2)CC1` (stereo not drawn) [Compound 60, 1-(1-(4-(2,6-dioxopiperidin-3-yl)-3,5-difluorophenyl)azetidin-3-yl)-3-(4-(1-methylcyclopropyl)phenyl)urea], the DC50 at GSPT1 was not above 30 nM. Besides, the IC50 at CRBN-DDB1 fell in the range of 100 to 1000 nM.

For `O=C1CCC(c2c(F)cc(N3CC(OC(=O)NC45CC(c6ccccc6)(C4)C5)C3)cc2F)C(=O)N1` (stereo not drawn) [Compound 61, 1-(4-(2,6-dioxopiperidin-3-yl)-3,5-difluorophenyl)azetidin-3-yl(3-phenylbicyclo[1.1.1]pentan-1-yl) carbamate], the DC50 on GSPT1 is not above 30 nM. The IC50 on CRBN-DDB1 was 100 to 1000 nM.

For `O=C1CCC(c2c(F)cc(N3CC(OC(=O)NC45CC(F)(C4)C5)C3)cc2F)C(=O)N1` (stereo not drawn) [Compound 62, 1-(4-(2,6-dioxopiperidin-3-yl)-3,5-difluorophenyl)azetidin-3-yl(3-fluorobicyclo[1.1.1]pentan-1-yl)carbamate], the DC50 at GSPT1 is more than 300 nM. Also, the IC50 on CRBN-DDB1 fell in the range of 100 to 1000 nM.

On to `O=C1CCC(c2c(F)cc(N3CC(OC(=O)NC45CC(C4)C5)C3)cc2F)C(=O)N1` (stereo not drawn) [Compound 63, 1-(4-(2,6-dioxopiperidin-3-yl)-3,5-difluorophenyl)azetidin-3-yl bicyclo[1.1.1]pentan-1-ylcarbamate], for which the DC50 at GSPT1 is more than 300 nM. For the same compound, the IC50 at CRBN-DDB1 was 100 to 1000 nM.

With `Cc1cc(NC(=O)OC2CN(c3cc(F)c(C4CCC(=O)NC4=O)c(F)c3)C2)cc(CN2CC3CC2CO3)c1C` (stereo not drawn) [Compound 64, 1-(4-(2,6-dioxopiperidin-3-yl)-3,5-difluorophenyl)azetidin-3-yl(3-(2-oxa-5-azabicyclo[2.2.1]heptan-5-ylmethyl)-4,5-dimethylphenyl) carbamate], the DC50 at GSPT1 was not above 30 nM. Also, the IC50 at CRBN-DDB1 was not above 100 nM.

Take `O=C1CCC(c2c(F)cc(N3CC(OC(=O)NC45CC(N6CCCCC6)(C4)C5)C3)cc2F)C(=O)N1` (stereo not drawn) [Compound 65, 1-(4-(2,6-dioxopiperidin-3-yl)-3,5-difluorophenyl)azetidin-3-yl (3-(piperidin-1-yl)bicyclo[1.1.1]pentan-1-yl) carbamate]: the DC50 on GSPT1 is not above 30 nM. Moreover, the IC50 at CRBN-DDB1 is not above 100 nM.

Turning to `Cc1ccc(NC(=O)NC2CN(c3ccc(C4CCC(=O)NC4=O)cc3)C2)cc1Cl` (stereo not drawn) [Compound 66, 1-(3-chloro-4-methylphenyl)-3-(1-(4-(2,6-dioxopiperidin-3-yl)phenyl)azetidin-3-yl)urea], at GSPT1, the DC50 is 30 to 300 nM. The IC50 on CRBN-DDB1 was in the range of 100 to 1000 nM.

Turning to `Cc1cc(C)cc(NC(=O)NC2CN(c3ccc(C4CCC(=O)NC4=O)cc3)C2)c1` (stereo not drawn) [Compound 67, 1-(3,5-dimethylphenyl)-3-(1-(4-(2,6-dioxopiperidin-3-yl)phenyl)azetidin-3-yl)urea], the DC50 at GSPT1 fell in the range of 30 to 300 nM. Further, the IC50 at CRBN-DDB1 lay in the range of 100 to 1000 nM.

On to `O=C1CCC(c2c(F)cc(N3CC(OC(=O)NC45CC(CF)(C4)C5)C3)cc2F)C(=O)N1` (stereo not drawn) [Compound 68, 1-(4-(2,6-dioxopiperidin-3-yl)-3,5-difluorophenyl)azetidin-3-yl (3-(fluoromethyl)bicyclo[1.1.1]pentan-1-yl) carbamate], for which, on GSPT1, the DC50 was 30 to 300 nM. The IC50 on CRBN-DDB1 is not above 100 nM.

In the case of `COc1ccc(C(F)(F)C23CC(NC(=O)OC4CN(c5cc(F)c(C6CCC(=O)NC6=O)c(F)c5)C4)(C2)C3)cc1` (stereo not drawn) [Compound 69, 1-(4-(2,6-dioxopiperidin-3-yl)-3,5-difluorophenyl)azetidin-3-yl (3-(difluoro(4-methoxyphenyl)methyl)bicyclo[1.1.1]pentan-1-yl)carbamate], on GSPT1, the DC50 is not above 30 nM. For the same compound, on CRBN-DDB1, the IC50 was 100 to 1000 nM.

As to `O=C1CCC(c2c(F)cc(N3CC(OC(=O)NC45CC(C(F)F)(C4)C5)C3)cc2F)C(=O)N1` (stereo not drawn) [Compound 70, 1-(4-(2,6-dioxopiperidin-3-yl)-3,5-difluorophenyl)azetidin-3-yl(3-(difluoromethyl)bicyclo[1.1.1]pentan-1-yl)carbamate], at GSPT1, the DC50 is not above 30 nM. Also, the IC50 at CRBN-DDB1 was in the range of 100 to 1000 nM.

Consider `O=C1CCC(c2c(F)cc(N3CC(OC(=O)NC45CC(N6CCOCC6)(C4)C5)C3)cc2F)C(=O)N1` (stereo not drawn) [Compound 71, 1-(4-(2,6-dioxopiperidin-3-yl)-3,5-difluorophenyl)azetidin-3-yl(3-morpholinobicyclo [1.1.1]pentan-1-yl) carbamate], for which, on GSPT1, the DC50 is more than 300 nM. On CRBN-DDB1, the IC50 was 100 to 1000 nM.

Take `COc1cc(C)c(Cl)cc1NC(=O)NC1CN(c2ccc(C3CCC(=O)NC3=O)cc2)C1` (stereo not drawn) [Compound 72, 1-(5-chloro-2-methoxy-4-methylphenyl)-3-(1-(4-(2,6-dioxopiperidin-3-yl)phenyl)azetidin-3-yl)urea]: the DC50 on GSPT1 lay within 30 to 300 nM. At CRBN-DDB1, the IC50 was more than 1000 nM.

As to `O=C1CCC(c2c(F)cc(N3CC(NC(=O)NC45CC(c6ccccc6)(C4)C5)C3)cc2F)C(=O)N1` (stereo not drawn) [Compound 73, 1-(1-(4-(2,6-dioxopiperidin-3-yl)-3,5-difluorophenyl)azetidin-3-yl)-3-(3-phenylbicyclo[1.1.1]pentan-1-yl)urea], the 50% degradation concentration (DC50) at GSPT1 was not above 30 nM. At CRBN-DDB1, the IC50 fell in the range of 100 to 1000 nM.

In the case of `O=C1CCC(c2ccc(N3CC(NC(=O)Nc4cc(OC(F)(F)F)ccn4)C3)cc2)C(=O)N1` (stereo not drawn) [Compound 74, 1-(1-(4-(2,6-dioxopiperidin-3-yl)phenyl)azetidin-3-yl)-3-(4-(trifluoromethoxy)pyridin-2-yl)urea], the DC50 at GSPT1 was more than 300 nM. For the same compound, the IC50 on CRBN-DDB1 fell in the range of 100 to 1000 nM.

With `COC(=O)C12CC(NC(=O)OC3CN(c4cc(F)c(C5CCC(=O)NC5=O)c(F)c4)C3)(C1)C2` (stereo not drawn) [Compound 75, methyl 3-((((1-(4-(2,6-dioxopiperidin-3-yl)-3,5-difluorophenyl)azetidin-3-yl)oxy)carbonyl)amino)bicyclo[1.1.1]pentane-1-carboxylate], at GSPT1, the DC50 lay within 30 to 300 nM. Also, at CRBN-DDB1, the IC50 was 100 to 1000 nM.

As to `Cc1cc(NC(=O)OC2CN(c3cc(F)c(C4CCC(=O)NC4=O)c(F)c3)C2)ccc1F` (stereo not drawn) [Compound 76, 1-(4-(2,6-dioxopiperidin-3-yl)-3,5-difluorophenyl)azetidin-3-yl (4-fluoro-3-methylphenyl)carbamate], on GSPT1, the half-maximal degradation concentration (DC50) was not above 30 nM. The IC50 on CRBN-DDB1 is not above 100 nM.

On to `O=C1CCC(c2c(F)cc(N3CC(NC(=O)N[C@H]4C[C@H](c5ccccc5)C4)C3)cc2F)C(=O)N1` (stereo partly drawn) [Compound 77, 1-(1-(4-(2,6-dioxopiperidin-3-yl)-3,5-difluorophenyl)azetidin-3-yl)-3-((1R,3R)-3-phenylcyclobutyl)urea], for which the DC50 at GSPT1 is not above 30 nM. The IC50 on CRBN-DDB1 is 100 to 1000 nM.

Take `Cc1cc(F)cc(NC(=O)OC2CN(c3cc(F)c(C4CCC(=O)NC4=O)c(F)c3)C2)c1` (stereo not drawn) [Compound 78, 1-(4-(2,6-dioxopiperidin-3-yl)-3,5-difluorophenyl)azetidin-3-yl(3-fluoro-5-methylphenyl)carbamate]: on GSPT1, the DC50 was not above 30 nM. The IC50 at CRBN-DDB1 lay in the range of 100 to 1000 nM.

Take `O=C1CCC(c2c(F)cc(N3CC(OC(=O)NC4CCCCC4)C3)cc2F)C(=O)N1` (stereo not drawn) [Compound 79, 1-(4-(2,6-dioxopiperidin-3-yl)-3,5-difluorophenyl)azetidin-3-yl cyclohexylcarbamate]: at GSPT1, the DC50 was in the range of 30 to 300 nM. Further, the IC50 at CRBN-DDB1 is 100 to 1000 nM.

On to `C[C@H]1C[C@@H](NC(=O)OC2CN(c3cc(F)c(C4CCC(=O)NC4=O)c(F)c3)C2)C1` (stereo partly drawn) [Compound 80, 1-(4-(2,6-dioxopiperidin-3-yl)-3,5-difluorophenyl)azetidin-3-yl ((1S,3S)-3-methylcyclobutyl)carbamate], for which the DC50 on GSPT1 is not above 30 nM. Besides, the IC50 at CRBN-DDB1 was not above 100 nM.

Turning to `O=C1CCC(c2c(F)cc(N3CC(OC(=O)N[C@H]4CCOC4)C3)cc2F)C(=O)N1` (stereo partly drawn) [Compound 81, 1-(4-(2,6-dioxopiperidin-3-yl)-3,5-difluorophenyl)azetidin-3-yl ((S)-tetrahydrofuran-3-yl)carbamate], the DC50 at GSPT1 is more than 300 nM. On CRBN-DDB1, the IC50 lay in the range of 100 to 1000 nM.

As for `O=C1CCC(c2c(F)cc(N3CC(OC(=O)NCC4CC4)C3)cc2F)C(=O)N1` (stereo not drawn) [Compound 82, 1-(4-(2,6-dioxopiperidin-3-yl)-3,5-difluorophenyl)azetidin-3-yl (cyclopropylmethyl)carbamate], the DC50 on GSPT1 is more than 300 nM. Also, the IC50 on CRBN-DDB1 was in the range of 100 to 1000 nM.

For `O=C1CCC(c2c(F)cc(N3CC(OC(=O)N[C@@H]4CCOC4)C3)cc2F)C(=O)N1` (stereo partly drawn) [Compound 83, 1-(4-(2,6-dioxopiperidin-3-yl)-3,5-difluorophenyl)azetidin-3-yl ((R)-tetrahydrofuran-3-yl)carbamate], on GSPT1, the DC50 was more than 300 nM. The IC50 on CRBN-DDB1 lay within 100 to 1000 nM.

For the compound `O=C1CCC(c2c(F)cc(N3CC(OC(=O)N[C@H]4CCCOC4)C3)cc2F)C(=O)N1` (stereo partly drawn) [Compound 84, 1-(4-(2,6-dioxopiperidin-3-yl)-3,5-difluorophenyl)azetidin-3-yl ((S)-tetrahydro-2H-pyran-3-yl)carbamate], the DC50 on GSPT1 is more than 300 nM. In addition, the IC50 on CRBN-DDB1 lay in the range of 100 to 1000 nM.

As to `O=C1CCC(c2c(F)cc(N3CC(OC(=O)N[C@@H]4CCCOC4)C3)cc2F)C(=O)N1` (stereo partly drawn) [Compound 85, 1-(4-(2,6-dioxopiperidin-3-yl)-3,5-difluorophenyl)azetidin-3-yl((R)-tetrahydro-2H-pyran-3-yl)carbamate], the DC50 at GSPT1 is more than 300 nM. For the same compound, the IC50 on CRBN-DDB1 was in the range of 100 to 1000 nM.
